Read-outs that look alike come from different tables or passages of the source.

Data on 15 compounds can be found in patent US9386769B2 (HUNAN RESEARCH INSTITUTE OF CHEMICAL INDUSTRY CO., LTD., priority 2011, dated 2016).

One data set relates to Botrytis cinerea. Put plainly: Fungicidal activity against Botrytis cinerea, mycelial growth inhibition on PDA plate. The data set is classed as cell-based. The settings on record: for inhibition at 0.1562 µg/mL: 0.1562 mg/L; for inhibition at 0.3125 µg/mL: 0.3125 mg/L; for inhibition at 0.625 µg/mL: 0.625 mg/L; for inhibition at 1.255 µg/mL: 1.255 mg/L; for inhibition at 25 µg/mL / activities against Botrytis cinerea (growth inhibition rating): 25 mg/L; for inhibition at 25 µg/mL: read-out: activities against Botrytis cinerea (growth inhibition rating). The procedure:
(§1) Bioassay method: Stock solution of every test compound was prepared in an appropriate solvent such as N,N-dimethylformamide (DMF), and then diluted to the required test concentrations with sterile water containing 0.1% Tween 80; Pipetted 3 mL of test solution to 27 mL of potato dextrose agar (PDA) medium at 45° C. and poured into a Petri dish to prepare a plate after shaking thoroughly; 6 mm of diameter of fungi cake from the edge of 7-day-old […] colony was inoculated on the central of the plate, wherein mycelium facing down, and cultured in the culture tank at 28° C. The diameter of fungi spread was calculated 4 days later using the control group tested with the diluent only. Test was run 4 times. Data were subjected to EXCEL statistical software analysis and the growth inhibition of the tested compound was calculated according to the corresponding control, the activity was rated on the basis of percentage of growth inhibition using the following rating system: A, inhibition (%)>90; B, 90≧inhibition (%)>70; C, 70≧inhibition (%)>50; D, inhibition (%)≦50.
Fungicidal activities against Botrytis cinerea of compounds represented by the general formula (I) were evaluated with the corresponding method in Example 18, and some of the test results are shown in Table 6 to Table 8.

For another data set, the system named is Sclerotinia sclerotiorum. The experiment in a line: Fungicidal activity against Sclerotinia sclerotiorum, mycelial growth inhibition on PDA plate. The data set is classed as cell-based. The settings on record: for inhibition at 0.1562 µg/mL / inhibition at 0.3125 µg/mL / inhibition at 0.625 µg/mL / inhibition at 1.255 µg/mL / inhibition at 2.5 µg/mL / inhibition at 5 µg/mL / inhibition at 10 µg/mL / inhibition at 25 µg/mL: Sclerotinia sclerotiorum; for inhibition at 0.1562 µg/mL: 0.1562 mg/L; for inhibition at 0.1562 µg/mL / inhibition at 0.3125 µg/mL / inhibition at 0.625 µg/mL / inhibition at 1.255 µg/mL / inhibition at 2.5 µg/mL / inhibition at 5 µg/mL / inhibition at 10 µg/mL: read-out: activities against Sclerotinia sclerotiorum (growth inhibition); for inhibition at 0.3125 µg/mL: 0.3125 mg/L; for inhibition at 0.625 µg/mL: 0.625 mg/L; for inhibition at 1.255 µg/mL: 1.255 mg/L; for inhibition at 25 µg/mL / activities against Sclerotinia sclerotiorum (growth inhibition rating): 25 mg/L; for inhibition at 25 µg/mL: read-out: activities against Sclerotinia sclerotiorum (growth inhibition rating). The protocol: as §1

A further data set concerns Alternaria alternata. Put plainly: Fungicidal activity against Alternaria alternata, mycelial growth inhibition on PDA plate. Type of data set: cell-based. The procedure: as §1
Fungicidal activities against Alternaria alternata of compounds represented by the general formula (I) were evaluated with the corresponding method in Example 18, and some of the test results are shown in Table 9 to Table 10.

For the next data set, the system named is Aphis fabae. The experiment in a line: Insecticidal activity against Aphis fabae, dipping of horsebean seedlings. The data set is classed as in vivo. To be noted: 24 h; for mortality at 500 µg/mL: read-out: activities against Aphis fabae (mortality rating). The protocol:
Bioassay method: Stock solution of every test compound was prepared in an appropriate solvent such as N,N-dimethylformamide, and a small amount of Tween 80 was added as emulsification agent, then diluted to the required test concentrations with distilled water, using the control group tested with distilled water only. More than 20 adults of Aphis fabae were transferred to newly unearthed horsebean seedlings and 24 hr later, horsebean seedlings with Aphis fabae were dipped in the test solution for 5 s, then allowed to dry with filter paper, transplanted to the absorbent sponge and covered with a glass tube, then kept in a room for normal cultivation. Each assay contained three replications, and results were averaged. Mortality was assessed 24 hr after the treatment. The activity was rated to A, B, C or D according to the rating system in Example 22.

Where [1] appears, read: Botrytis cinerea, Table 8, read-out: activities against Botrytis cinerea (growth inhibition).
Where [2] appears, read: Botrytis cinerea, 2.5 mg/L, Table 8, read-out: activities against Botrytis cinerea (growth inhibition).
The mark [3] stands for this setting: Botrytis cinerea, 5 mg/L, Table 8, read-out: activities against Botrytis cinerea (growth inhibition).
The mark [4] stands for this setting: read-out: activities against Aphis fabae (mortality).

For the compound `CCN(Cc1cnc(Cl)s1)c1nc(Cl)ccc1[N+](=O)[O-]`, the melting point fell in the range of 71.4 to 74.1 °C.
Still for that read-out and setting: in the case of `CCN(Cc1cnc(Cl)s1)c1nc(Cl)ccc1Cl` it was 95.8 to 96.8 °C.
On to `CCOc1ccc([N+](=O)[O-])c(N(CC)Cc2cnc(Cl)s2)n1` [Compound 04, 6-ethoxy-N-((2-chlorothiazole-5-yl)methyl)-N-ethyl-3-nitropyridine-2-amine], for which the inhibition at 0.1562 µg/mL came to 63% in the data set with Botrytis cinerea (setting [1]) and 53% in the data set with Sclerotinia sclerotiorum (Table 5). For the same compound, the figures for the inhibition at 0.3125 µg/mL in the data set on Botrytis cinerea (setting [1]) and in the data set on Sclerotinia sclerotiorum (Table 5) were 76% and 59%, respectively. Besides, the inhibition at 0.625 µg/mL with Botrytis cinerea (setting [1]) stood at 81%; with Sclerotinia sclerotiorum (Table 5), 61%. Further, the results for the inhibition at 1.255 µg/mL in the data set on Botrytis cinerea (setting [1]) and in the data set with Sclerotinia sclerotiorum (Table 5) were 82% and 65%, respectively. The inhibition at 2.5 µg/mL was 70% with Botrytis cinerea (Botrytis cinerea, 2.5 mg/L, Table 7, read-out: activities against Botrytis cinerea (growth inhibition)); 87% in the data set on Botrytis cinerea (setting [2]); 75% with Sclerotinia sclerotiorum (2.5 mg/L, Table 4); 70% with Sclerotinia sclerotiorum (2.5 mg/L, Table 5); 55% in the data set with Alternaria alternata (Alternaria alternata, 2.5 mg/L, read-out: activities against Alternaria alternata (growth inhibition)). The inhibition at 5 µg/mL in the data set with Botrytis cinerea (Botrytis cinerea, 5 mg/L, Table 7, read-out: activities against Botrytis cinerea (growth inhibition)) was found to be 78%; in the data set with Botrytis cinerea (setting [3]) it was 90%; in the data set on Sclerotinia sclerotiorum (5 mg/L, Table 4), 90%; in the data set with Sclerotinia sclerotiorum (5 mg/L, Table 5), 75%; in the data set with Alternaria alternata (Alternaria alternata, 5 mg/L, read-out: activities against Alternaria alternata (growth inhibition)), 60%. Moreover, the inhibition at 10 µg/mL in the data set on Botrytis cinerea (Botrytis cinerea, 10 mg/L, Table 7, read-out: activities against Botrytis cinerea (growth inhibition)) came to 94%; in the data set on Sclerotinia sclerotiorum (10 mg/L, Table 4), 100%; in the data set with Alternaria alternata (Alternaria alternata, 10 mg/L, read-out: activities against Alternaria alternata (growth inhibition)), 70%. Further, the inhibition at 25 µg/mL in the data set with Botrytis cinerea (Botrytis cinerea) is > 90%; in the data set on Sclerotinia sclerotiorum, > 90%; in the data set with Alternaria alternata (Alternaria alternata, 25 mg/L, read-out: activities against Alternaria alternata (growth inhibition rating)), 70 to 90%. For the same compound, the mortality at 500 µg/mL with Aphis fabae was > 90%. Also, the mortality at 6.25 µg/mL with Aphis fabae (setting [4]) is 0%. Also, the mortality at 25 µg/mL in the data set with Aphis fabae (setting [4]) was 26.7%. Further, in the data set with Aphis fabae (setting [4]), the mortality at 100 µg/mL is 46.7%.
Consider `CCCOc1ccc([N+](=O)[O-])c(N(CC)Cc2cnc(Cl)s2)n1` [Compound 07], for which the “activities against Botrytis cinerea (growth inhibition)” value was 44% in the data set on Botrytis cinerea (2.5 mg/L, Table 7); 52% in the data set on Botrytis cinerea (5 mg/L, Table 7); 68% in the data set on Botrytis cinerea (10 mg/L, Table 7). In the data set on Botrytis cinerea, the “activities against Botrytis cinerea (growth inhibition rating)” value was “B (B, 90≧inhibition (%)>70)”. Also, in the data set on Sclerotinia sclerotiorum, the “activities against Sclerotinia sclerotiorum (growth inhibition rating)” value is recorded as “B (B, 90≧inhibition (%)>70)”. Further, the “activities against Alternaria alternata (growth inhibition)” value with Alternaria alternata (2.5 mg/L) is reported as 20%; in the data set with Alternaria alternata (5 mg/L) it was 36%; in the data set with Alternaria alternata (10 mg/L) it was 45%. Besides, the “activities against Alternaria alternata (growth inhibition rating)” value in the data set with Alternaria alternata (25 mg/L) is reported as “C (C, 70≧inhibition (%)>50)”.
On to `CCCN(Cc1cnc(Cl)s1)c1nc(OC)ccc1[N+](=O)[O-]` [Compound 08], for which the “activities against Botrytis cinerea (growth inhibition)” value with Botrytis cinerea (2.5 mg/L, Table 7) is listed as 68%; in the data set with Botrytis cinerea (5 mg/L, Table 7) it was 70%; with Botrytis cinerea (10 mg/L, Table 7) it was 70%. Moreover, the “activities against Botrytis cinerea (growth inhibition rating)” value in the data set on Botrytis cinerea is listed as “A (A, inhibition (%)>90)”. Further, in the data set on Sclerotinia sclerotiorum, the “activities against Sclerotinia sclerotiorum (growth inhibition rating)” value was “A (A, inhibition (%)>90)”. Moreover, the “activities against Alternaria alternata (growth inhibition)” value with Alternaria alternata (2.5 mg/L) is 45%; with Alternaria alternata (5 mg/L) it was 48%; in the data set with Alternaria alternata (10 mg/L) it was 60%. In the data set on Alternaria alternata (25 mg/L), the “activities against Alternaria alternata (growth inhibition rating)” value is reported as “C (C, 70≧inhibition (%)>50)”.
As for `CCCN(Cc1cnc(Cl)s1)c1nc(OCC)ccc1[N+](=O)[O-]` [Compound 09], the “activities against Botrytis cinerea (growth inhibition)” value with Botrytis cinerea (2.5 mg/L, Table 7) was 52%; in the data set with Botrytis cinerea (5 mg/L, Table 7), 65%; in the data set on Botrytis cinerea (10 mg/L, Table 7) it was 65%. Further, in the data set with Botrytis cinerea, the “activities against Botrytis cinerea (growth inhibition rating)” value was “A (A, inhibition (%)>90)”. For the same compound, in the data set on Sclerotinia sclerotiorum, the “activities against Sclerotinia sclerotiorum (growth inhibition rating)” value is “A (A, inhibition (%)>90)”.
For `CCCOc1ccc([N+](=O)[O-])c(N(CCC)Cc2cnc(Cl)s2)n1` [Compound 10], the “activities against Botrytis cinerea (growth inhibition rating)” value with Botrytis cinerea was “B (B, 90≧inhibition (%)>70)”. Moreover, the “activities against Sclerotinia sclerotiorum (growth inhibition rating)” value in the data set with Sclerotinia sclerotiorum is listed as “B (B, 90≧inhibition (%)>70)”.
`COc1ccc([N+](=O)[O-])c(N(C)Cc2cnc(Cl)s2)n1` [Compound 17]: the “activities against Alternaria alternata (growth inhibition rating)” value in the data set on Alternaria alternata (25 mg/L) is reported as “B (B, 90≧inhibition (%)>70)”.
As for `CCNc1ccc([N+](=O)[O-])c(N(CC)Cc2cnc(Cl)s2)n1` [Compound 24], in the data set with Botrytis cinerea, the “activities against Botrytis cinerea (growth inhibition rating)” value is “B (B, 90≧inhibition (%)>70)”.
Still for that read-out and setting: for `CCOc1ccc([N+](=O)[O-])c(N(Cc2cnc(Cl)s2)C(C)C)n1` [Compound 31] the value was “B (B, 90≧inhibition (%)>70)”.
As to `CCN(Cc1cnc(Br)s1)c1nc(OC)ccc1[N+](=O)[O-]` [Compound 33, 6-methoxy-N-((2-bromothiazole-5-yl)methyl)-N-ethyl-3-nitropyridine-2-amine], the figures for the inhibition at 25 µg/mL in the data set with Botrytis cinerea (Botrytis cinerea) and in the data set with Sclerotinia sclerotiorum were 70 to 90% and > 90%, respectively. In the data set on Sclerotinia sclerotiorum (2.5 mg/L, Table 4), the inhibition at 2.5 µg/mL stood at 91%. Also, in the data set with Sclerotinia sclerotiorum (5 mg/L, Table 4), the inhibition at 5 µg/mL was 100%. In addition, the inhibition at 10 µg/mL with Sclerotinia sclerotiorum (10 mg/L, Table 4) is 100%.
As to `CCN(Cc1sc(C)nc1C)c1nc(OC)ccc1[N+](=O)[O-]` [Compound 44], the “activities against Botrytis cinerea (growth inhibition rating)” value in the data set on Botrytis cinerea is reported as “A (A, inhibition (%)>90)”. The “activities against Sclerotinia sclerotiorum (growth inhibition)” value amounted to 70% with Sclerotinia sclerotiorum (2.5 mg/L, Table 4); 75% with Sclerotinia sclerotiorum (5 mg/L, Table 4); 87% in the data set with Sclerotinia sclerotiorum (10 mg/L, Table 4). For the same compound, the “activities against Sclerotinia sclerotiorum (growth inhibition rating)” value with Sclerotinia sclerotiorum was “A (A, inhibition (%)>90)”. In the data set on Alternaria alternata (25 mg/L), the “activities against Alternaria alternata (growth inhibition rating)” value is recorded as “B (B, 90≧inhibition (%)>70)”.
In the case of `CCOc1nc(N(CC)Cc2cnc(Cl)s2)ccc1[N+](=O)[O-]` [Compound 45], the mortality at 500 µg/mL with Aphis fabae is 70 to 90%.
For the compound `COc1nc(NCc2cnc(Cl)s2)ccc1[N+](=O)[O-]` [Compound 47], in the data set on Botrytis cinerea, the “activities against Botrytis cinerea (growth inhibition rating)” value is “C (C, 70≧inhibition (%)>50)”.
Take `COC(=O)NC(=S)Nc1ccccc1NC(=S)NC(=O)OC` [Thiophanate-Methyl, reference compound]: in the data set on Botrytis cinerea (setting [1]), the inhibition at 0.1562 µg/mL came to 18%, the inhibition at 0.3125 µg/mL came to 75%, the inhibition at 0.625 µg/mL worked out at 88% and the inhibition at 1.255 µg/mL came out at 93%. Moreover, in the data set with Botrytis cinerea (setting [2]), the inhibition at 2.5 µg/mL came out at 98%. For the same compound, the inhibition at 5 µg/mL in the data set on Botrytis cinerea (setting [3]) came out at 100%. Also, in the data set on Sclerotinia sclerotiorum (Table 5), the inhibition at 0.1562 µg/mL came out at 33%, the inhibition at 0.3125 µg/mL turned out to be 47%, the inhibition at 0.625 µg/mL worked out at 63% and the inhibition at 1.255 µg/mL was determined as 72%. For the same compound, the inhibition at 2.5 µg/mL in the data set on Sclerotinia sclerotiorum (2.5 mg/L, Table 5) worked out at 77%. For the same compound, the inhibition at 5 µg/mL with Sclerotinia sclerotiorum (5 mg/L, Table 5) amounted to 85%.

A word on the melting point: it is the temperature, or range, at which the solid turns liquid. In general, inhibition refers to the drop in the measured response relative to a control, in per cent. As a reminder, the mortality is the share of the test organisms that died.
